Source: patent US20070142480A1, “Alleviation of pain in osteoarthritis by means of intra-articular implantation of perfluorodecalin” (priority 2005, published 2007)

Columns and labels:
[1] = cited from earlier work
[2] = tested on: patients with symptomatic knee OA; assay: single group, open-label study of weekly intra-articular injections in outpatients with symptomatic knee OA; type: in vivo, human; conditions: for WOMAC score: baseline 5±2, p<0.001
Protocol: The efficacy of treatment was determined by a validated clinical test method and side effects recorded. This was a single group, open-label study, including outpatients of both sexes, aged between 18 and 85 years, with symptomatic knee OA. All patients (25) underwent weekly intra-articular injections of perfluorodecalin for 5 consecutive weeks and were followed-up for 10 additional weeks. The safety and tolerability profile (primary end-point) was assessed by adverse event reporting. The secondary endpoint was efficacy evaluated by changes in the Western Ontario and McMaster Universities (WOMAC) score vs. baseline. Patient and physician satisfaction were also recorded.

[3] = cited from earlier work; remark: listed apart in the source

FC1(F)C(F)(F)C(F)(F)C2(F)C(F)(F)C(F)(F)C(F)(F)C(F)(F)C2(F)C1(F)F (centres unmarked) [Perfluorodecalin]
Vapor pressure at 37° C. ([1]; 37° C.): 14 mm Hg | CO2 solubility [1]: 1400 mL/L | O2 solubility [1]: 490 mL/L | serious treatment-related adverse events ([2]; 25 patients, 5 weekly intra-articular injections, 10 additional weeks follow-up): no serious treatment-related adverse events were reported | most frequent adverse event: pain at the injection site ([2]; 25 patients, weekly intra-articular injections for 5 consecutive weeks): 10 % of the injections | duration of relief of pain, on average ([2]; after intra-articular injection): one week | carry-over effect after the last injection ([2]; based on sustained improvements in WOMAC score and subscores): at least 3 weeks | WOMAC score ([2]; end of the injection series, week 6): 2±1.5 | WOMAC subscore 'pain' ([2]; from week 4): significantly reduced | WOMAC subscore 'physical function' ([2]; from week 6): significantly reduced | WOMAC subscore 'stiffness' ([2]; from week 6): significantly reduced | safety and tolerability profile ([2]; intra-articular, adverse event reporting): generally well tolerated | WOMAC score ([2]; within the first 2 weeks of treatment): 3±2 | solubility in water and in traditional organic solvents [3]: insoluble
